For the test, the system named is primary mouse oligodendrocyte precursor cells. As to the kind of experiment: In vitro differentiation of primary mouse OPCs (MBP/O4 immunostaining, MBP western blot). In kind it is cell-based. Conditions: for Relative MBP protein expression (ratio MBP to β-actin), western blot: treatment day 0, 2, 4, 6 days, compared to vehicle; for MBP protein expression (IHC), dose dependence / MBP/O4 ratio, dose dependence: Roflumilast 5, 10 μM, Gebr32a 0.5, 1, 5 μM, BPN14770 0.1-10 μM, day 6. How it is done:
FIG. 3: Inhibition of PDE4 by roflumilast induces differentiation of primary mouse oligodendrocyte precursor cells. Primary mouse oligodendrocyte precursor cells (OPCs) were isolated from p0 C57bl6 pups using the shake off method at day 0. Primary OPCs (150.000 cells/condition) were cultured and stimulated with vehicle (0.1% DMSO) or the PDE4 inhibitor Roflumilast (5 μM, or 10 μM) in 0.1% DMSO. Treatment was repeated on day 2 and day 4, applying a 40% medium change. Cells were fixated at day 6 and stained for O4, a late OPC marker and MBP, an oligodendrocyte marker.
For western blot, primary OPCs (500.000 cells/condition) were cultured and stimulated with vehicle (0.1% DMSO) or the PDE4 inhibitor Roflumilast (5 μM) in 0.1% DMSO. Treatment was repeated on day 2 and day 4, applying a 40% medium change. […] IHC Data were analyzed using a non-parametric Kruskal-Wallis test with Dunn's multiple comparisons test was performed; p<0.05=*; n=4/group. Western blot data were analyzed using a non-parametric Mann-Withney test; p<0.05; n=4/group.
FIG. 4: Inhibition of PDE4D by Gebr32a induces differentiation of primary mouse oligodendrocyte precursor cells. Primary mouse oligodendrocyte precursor cells (OPCs) were isolated from p0 C57bl6 pups using the shake off method at day 0. Primary OPCs (150.000 cells/condition) were cultured and stimulated with vehicle (0.1% DMSO) or the PDE4D inhibitor Gebr32a (0.5 μM, 1 μM or 5 μM) in 0.1% DMSO. Treatment was repeated on day 2 and day 4, applying a 40% medium change. Cells were fixated at day 6 and stained for O4, a late OPC marker and MBP, an oligodendrocyte marker.
For western blot, primary OPCs (500.000 cells/condition) were cultured and stimulated with vehicle (0.1% DMSO) or the PDE4D inhibitor Gebr32a (5 μM) in 0.1% DMSO. Treatment was repeated on day 2 and day 4, applying a 40% medium change. […] IHC Data were analyzed using a non-parametric Kruskal-Wallis test with Dunn's multiple comparisons test was performed; p<0.05=*; n=4/group. Western blot data were analyzed using a non-parametric Mann-Withney test; p<0.05; n=4/group.
FIG. 5: Inhibition of PDE4D by BPN14770 induces differentiation of primary mouse oligodendrocyte precursor cells. Primary mouse oligodendrocyte precursor cells (OPCs) were isolated from p0 C57bl6 pups using the shake off method at day 0. Primary OPCs (150.000 cells/condition) were cultured and stimulated with vehicle (PBS) or the PDE4D inhibitor BPN14770 (0.1 μM, 0.3 μM, 1 μM, 3 μM and 10 μM) in PBS. Treatment was repeated on day 2 and day 4, applying a 40% medium change. Cells were fixated at day 6 and stained for O4, a late OPC marker and MBP, an oligodendrocyte marker.
Mixed glial cultures were prepared from postnatal day 2 mouse cerebral cortices of C57BLl/6JOIaHsd animals and used to generate OPC-enriched glial cultures by separating the OPCs from the astrocyte monolayer by orbital shaking followed by purification by differential adhesion to plastic. Purified OPCs were seeded on poly-L-lysine (5 μg/ml; Sigma-Aldrich, Bornem, Belgium) coated plates or glass cover slides for staining. Isolated OPCs were plated in 24-well plates (150,000 cells/well Greiner Bio-One, Frickenhausen, Germany) for immunocytochemistry or in 6-well plates (500,000 cells/well Greiner Bio-One, Frickenhausen, Germany) for western blot analyses. OPCs were induced to differentiate for 6 days with Roflumilast (5 μM and 10 μM), Gebr32 (0.5, 1 and 5 μM) or vehicle (DMSO) in SATO-medium supplemented with 2% horse serum (Sigma-Aldrich). Treatment was repeated on day 2 and 4, applying a 40% medium change. All plates were at 37° C. and 8.5% C02.
Western blot was used to assess the total MBP production by OPC treated with roflumilast or Gebr32a compare to the vehicle group. Equal amount of protein sample was separated by 10% sodium dodecyl sulfate polyacrylamide gel electrophorese and blotted onto a PVDF membrane (GE Healthcare, Buckinghamshore, UK). […]
For orientation: A western blot detects proteins with antibodies after separation by electrophoresis.

With `OC(CN1CCOCC1)Cn1ccc(-c2ccc(OC(F)F)c(OC3CCCC3)c2)n1` (stereo not shown) [Gebr32a], the “MBP protein expression (IHC), dose dependence” value was “dose-dependent increase” and the “MBP/O4 ratio, dose dependence” value is listed as “dose-dependent increase”. The “Relative MBP protein expression (ratio MBP to β-actin), western blot” value (5 μM) was “three-fold increase”.

As to `O=C(Nc1c(Cl)cncc1Cl)c1ccc(OC(F)F)c(OCC2CC2)c1` [roflumilast], the “MBP protein expression (IHC), dose dependence” value is given as “increased dose-dependently” and the “MBP/O4 ratio, dose dependence” value was “increased dose-dependently”. Moreover, the “Relative MBP protein expression, IHC” value (5 μM, fixated at day 6, compared to vehicle) is given as “three-fold increased”. The “Relative MBP protein expression (ratio MBP to β-actin), western blot” value (5 μM) is “three-fold increased”.

The values above are taken from patent US20210145838A1, “SELECTIVE PDE4D INHIBITORS AGAINST DEMYELINATING DISEASES” (Universiteit Hasselt, priority 2018, published 2021).
